These are literature values, as cited in US20110159084A1, “RALOXIFENE PHARMACEUTICAL FORMULATIONS” (DR. REDDY'S LABORATORIES LTD., priority 2008, published 2011).

For series [1] the following is noted: in vivo.
For series [2] the following is noted: 37° C.

With `Cl.O=C(c1ccc(OCCN2CCCCC2)cc1)c1c(-c2ccc(O)cc2)sc2cc(O)ccc12` [Raloxifene hydrochloride, methanone, [6-hydroxy-2-(4-hydroxyphenyl)benzo[b]thiene-3-yl]-[4-[2-(1-piperidinyl)ethoxy]phenyl]-, hydrochloride], the absolute bioavailability result in series [1] is on record as “about 2%”. Moreover, the “solubility in simulated gastric fluid (SGF) USP” value in series [2] (SGF USP) is 3 µg/mL. In addition, the “solubility in simulated intestinal fluid (SIF) USP” value in series [2] (SIF USP) is 2 µg/mL.
On to Raloxifene, for which, in series [1], the absolute bioavailability is given as 2% and the intra-subject pharmacokinetic variability result is recorded as “approximately 30 % coefficient of variation”.
